{"source": "patent US11896035B2", "about": "“Chemical mitigants in animal feed and feed ingredients” (priority 2014, dated 2024)", "tested_on": "PEDv", "test": "PEDv RT-PCR (Ct) in chemically treated, then inoculated feed matrices", "parameters": "species or system Porcine Epidemic Diarrhea virus", "settings": "room temperature; for Spray Dried Plasma Average CT Count: spray dried animal plasma", "description": "In a third study, experiments were conducted to evaluate the effectiveness of various chemical mitigation strategies on post-processing contamination of PEDv in feed and feed components. Treatments were arranged in a 7×4 factorial with 6 chemical treatments plus a control, and 4 feed matrices. […] The 4 feed matrices included: 1) complete swine diet (complete nursery diet), 2) blood meal, 3) porcine meat and bone meal (MBM), and 4) spray-dried animal plasma. The 4 feed treatments×6 chemical treatments (plus 1 control) equaled 28-1 kg batches. The feed matrices were chemically treated first and then inoculated to represent post-processing contamination. […] There were 3 segregated replicates of each batch for each day of analysis. All samples were stored at room temperature. Untreated control supernant from each of the 4 feed matrixes on day 0 was harvested and aliquots frozen and used as controls for subsequent analysis days Each day these samples were used as laboratory controls to evaluate inter assay variation.\nSamples were analyzed for PEDv by RT-PCR. Analyzed values represent cycle time or cycle threshold (Ct.) before detection, Lower Ct values indicate greater nucleic acid presence, but not necessarily infectivity. Data were analyzed using the GLIMMIX procedure of SAS with fixed effects of chemical treatment, matrix, and time, as well as all interactions."}
{"smiles": "[Na+].[O-][Cl+2]([O-])[O-]", "note": "[Sodium chlorate, sodium chlorate]", "values": [{"measurement": "Porcine Blood Meal Average Ct Count", "setting": "day 0", "result": 29}, {"measurement": "Porcine Blood Meal Average Ct Count", "setting": "day 1", "result": 29}, {"measurement": "Porcine Blood Meal Average Ct Count", "setting": "day 3", "result": 31}, {"measurement": "Porcine Blood Meal Average Ct Count", "setting": "day 7", "result": 32}, {"measurement": "Porcine Blood Meal Average Ct Count", "setting": "day 14", "result": 33}, {"measurement": "Porcine Blood Meal Average Ct Count", "setting": "day 21", "result": 36}, {"measurement": "Porcine Blood Meal Average Ct Count", "setting": "day 42", "result": 36}, {"measurement": "Porcine Meat and Bone Meal Average CT Count", "setting": "day 0", "result": 26}, {"measurement": "Porcine Meat and Bone Meal Average CT Count", "setting": "day 1", "result": 25}, {"measurement": "Porcine Meat and Bone Meal Average CT Count", "setting": "day 3", "result": 27}, {"measurement": "Porcine Meat and Bone Meal Average CT Count", "setting": "day 7", "result": 27}, {"measurement": "Porcine Meat and Bone Meal Average CT Count", "setting": "day 14", "result": 28}, {"measurement": "Porcine Meat and Bone Meal Average CT Count", "setting": "day 21", "result": 27}, {"measurement": "Porcine Meat and Bone Meal Average CT Count", "setting": "day 42", "result": 29}, {"measurement": "Spray Dried Plasma Average CT Count", "setting": "day 0", "result": 28}, {"measurement": "Spray Dried Plasma Average CT Count", "setting": "day 1", "result": 26}, {"measurement": "Spray Dried Plasma Average CT Count", "setting": "day 3", "result": 28}, {"measurement": "Spray Dried Plasma Average CT Count", "setting": "day 7", "result": 28}, {"measurement": "Spray Dried Plasma Average CT Count", "setting": "day 14", "result": 28}, {"measurement": "Spray Dried Plasma Average CT Count", "setting": "day 21", "result": 29}, {"measurement": "Spray Dried Plasma Average CT Count", "setting": "day 42", "result": 28}, {"measurement": "Swine Diet Average Ct Count", "setting": "day 0", "result": 28}, {"measurement": "Swine Diet Average Ct Count", "setting": "day 1", "result": 28}, {"measurement": "Swine Diet Average Ct Count", "setting": "day 3", "result": 29}, {"measurement": "Swine Diet Average Ct Count", "setting": "day 7", "result": 30}, {"measurement": "Swine Diet Average Ct Count", "setting": "day 14", "result": 29}, {"measurement": "Swine Diet Average Ct Count", "setting": "day 21", "result": 32}, {"measurement": "Swine Diet Average Ct Count", "setting": "day 42", "result": 32}]}
